Measured values reported in the NIST ThermoML archive (doi:10.1007/s10765-005-5570-x).
Several values for one entry are separate records, joined by “and”; a condition that tells them apart may be missing. Equal values may be shown once.

Assays:
[1] = Liquid
[2] = xn = mol fraction of the nth substance listed; details: 101.33 kPa, Liquid, x2 = 0

ClCCCl [1,2-dichloroethane]
[1]
Details | mass density [kg/m3]
288.15 K, 101.33 kPa | 1260.13
298.15 K, 101.33 kPa | 1246.59
298.15 K, 200 kPa | 1245.68
298.15 K, 500 kPa | 1246.02
298.15 K, 1100 kPa | 1246.54
298.15 K, 2000 kPa | 1247.41
298.15 K, 3100 kPa | 1248.51
298.15 K, 4100 kPa | 1249.53
298.15 K, 5100 kPa | 1250.32
298.15 K, 6100 kPa | 1251.22
298.15 K, 7100 kPa | 1252.27
298.15 K, 8000 kPa | 1253.07
298.15 K, 8900 kPa | 1254
298.15 K, 10100 kPa | 1255.18
298.15 K, 12000 kPa | 1256.96
298.15 K, 13900 kPa | 1258.84
298.15 K, 15700 kPa | 1260.48
298.15 K, 17700 kPa | 1262.37
298.15 K, 19700 kPa | 1264.29
308.15 K, 101.33 kPa | 1231.27

ClCCBr [1-bromo-2-chloroethane]
[1]
Details | mass density [kg/m3]
288.15 K, 101.33 kPa | 1744.36
298.15 K, 101.33 kPa | 1727.88
298.15 K, 200 kPa | 1726.08
298.15 K, 500 kPa | 1726.48
298.15 K, 900 kPa | 1726.94
298.15 K, 2000 kPa | 1728.17
298.15 K, 2900 kPa | 1729.14
298.15 K, 4100 kPa | 1730.57
298.15 K, 4800 kPa | 1731.35
298.15 K, 6000 kPa | 1732.77
298.15 K, 6800 kPa | 1733.74
298.15 K, 8000 kPa | 1735.1
298.15 K, 8700 kPa | 1736.13
298.15 K, 9600 kPa | 1737.17
298.15 K, 11700 kPa | 1739.6
298.15 K, 13900 kPa | 1742.49
298.15 K, 15600 kPa | 1744.52
298.15 K, 17600 kPa | 1747.12
298.15 K, 19400 kPa | 1749.48
308.15 K, 101.33 kPa | 1708.86

ClCBr [bromochloromethane]
[1]
Details | mass density [kg/m3]
288.15 K, 101.33 kPa | 1945.94
298.15 K, 101.33 kPa | 1924.88
298.15 K, 200 kPa | 1923.54
298.15 K, 500 kPa | 1923.88
298.15 K, 1000 kPa | 1924.64
298.15 K, 2100 kPa | 1926.24
298.15 K, 2900 kPa | 1927.62
298.15 K, 3800 kPa | 1928.77
298.15 K, 4900 kPa | 1930.51
298.15 K, 5900 kPa | 1932.03
298.15 K, 7000 kPa | 1933.43
298.15 K, 8000 kPa | 1934.88
298.15 K, 8800 kPa | 1936.36
298.15 K, 9800 kPa | 1937.83
298.15 K, 11800 kPa | 1940.79
298.15 K, 13900 kPa | 1944.25
298.15 K, 15700 kPa | 1947.01
298.15 K, 17800 kPa | 1950.26
298.15 K, 19600 kPa | 1953.16
308.15 K, 101.33 kPa | 1900.86

BrCBr [dibromomethane]
[1]
Details | mass density [kg/m3]
288.15 K, 101.33 kPa | 2501.88
298.15 K, 101.33 kPa | 2478.37
298.15 K, 200 kPa | 2477.56
298.15 K, 300 kPa | 2477.92
298.15 K, 600 kPa | 2478.35
298.15 K, 1000 kPa | 2478.9
298.15 K, 2100 kPa | 2480.41
298.15 K, 3000 kPa | 2481.88
298.15 K, 4100 kPa | 2483.5
298.15 K, 5000 kPa | 2484.84
298.15 K, 5900 kPa | 2486.26
298.15 K, 6900 kPa | 2487.82
298.15 K, 8000 kPa | 2489.54
298.15 K, 8800 kPa | 2490.92
298.15 K, 9800 kPa | 2492.58
298.15 K, 11800 kPa | 2494.98
298.15 K, 13700 kPa | 2498.59
298.15 K, 15800 kPa | 2502.33
298.15 K, 15900 kPa | 2502.49
298.15 K, 17700 kPa | 2505.74
298.15 K, 19200 kPa | 2508.69
298.15 K, 19300 kPa | 2508.84
308.15 K, 101.33 kPa | 2451.74

CCOC(C)=O [ethyl acetate]
[1]
Details | mass density
288.15 K, 101.33 kPa | 906.71 kg/m3
298.15 K, 101.33 kPa | 894.97 kg/m3
298.15 K, 200 kPa | 894.2 kg/m3
298.15 K, 600 kPa | 894.65 kg/m3
298.15 K, 1100 kPa | 895.18 kg/m3
298.15 K, 2100 kPa | 896.14 kg/m3
298.15 K, 2900 kPa | 897.1 kg/m3
298.15 K, 4000 kPa | 898.2 kg/m3
298.15 K, 5100 kPa | 899.22 kg/m3
298.15 K, 6000 kPa | 900.19 kg/m3
298.15 K, 7000 kPa | 901.11 kg/m3
298.15 K, 8000 kPa | 902.12 kg/m3
298.15 K, 8900 kPa | 902.88 kg/m3
298.15 K, 9900 kPa | 903.88 kg/m3
298.15 K, 11700 kPa | 905.54 kg/m3
298.15 K, 13800 kPa | 907.54 kg/m3
298.15 K, 16000 kPa | 909.45 kg/m3
298.15 K, 17600 kPa | 910.84 kg/m3
298.15 K, 19500 kPa | 912.59 kg/m3
308.15 K, 101.33 kPa | 882.27 kg/m3 and 881.87 kg/m3

CCOC(C)=O [ethyl acetate] + BrCBr
[2]
Details | mass density [kg/m3]
288.15 K | 906.71
298.15 K | 894.97
308.15 K | 882.27

CCOC(C)=O [ethyl acetate] + ClCBr
[2]
Details | mass density [kg/m3]
288.15 K | 906.71
298.15 K | 894.97
308.15 K | 881.87

CCOC(C)=O [ethyl acetate] + ClCCBr
[2]
Details | mass density [kg/m3]
288.15 K | 906.71
298.15 K | 894.97
308.15 K | 882.27

CCOC(C)=O [ethyl acetate] + ClCCCl
[2]
Details | mass density [kg/m3]
288.15 K | 906.71
298.15 K | 894.97
308.15 K | 882.27
